Source: paper PMC3401275 (International Journal of Pharmaceutics, 2012)

How the values were obtained:
[1] = test system: Caco-2 cells; assay: Cytotoxicity assay; assay type: cell-based, human; conditions: 100µM, 48 h
[2] = cited from earlier work
[3] = biological target: T1, SMVT (Canis lupus familiaris, UniProt A0A8I3MY61); conditions: read-out: IC50 for inhibition of [3H] biotin uptake; MDCK-MDR1 cells, 0.1–100µM, 30 min
T1 sequence (A0A8I3MY61 1-636): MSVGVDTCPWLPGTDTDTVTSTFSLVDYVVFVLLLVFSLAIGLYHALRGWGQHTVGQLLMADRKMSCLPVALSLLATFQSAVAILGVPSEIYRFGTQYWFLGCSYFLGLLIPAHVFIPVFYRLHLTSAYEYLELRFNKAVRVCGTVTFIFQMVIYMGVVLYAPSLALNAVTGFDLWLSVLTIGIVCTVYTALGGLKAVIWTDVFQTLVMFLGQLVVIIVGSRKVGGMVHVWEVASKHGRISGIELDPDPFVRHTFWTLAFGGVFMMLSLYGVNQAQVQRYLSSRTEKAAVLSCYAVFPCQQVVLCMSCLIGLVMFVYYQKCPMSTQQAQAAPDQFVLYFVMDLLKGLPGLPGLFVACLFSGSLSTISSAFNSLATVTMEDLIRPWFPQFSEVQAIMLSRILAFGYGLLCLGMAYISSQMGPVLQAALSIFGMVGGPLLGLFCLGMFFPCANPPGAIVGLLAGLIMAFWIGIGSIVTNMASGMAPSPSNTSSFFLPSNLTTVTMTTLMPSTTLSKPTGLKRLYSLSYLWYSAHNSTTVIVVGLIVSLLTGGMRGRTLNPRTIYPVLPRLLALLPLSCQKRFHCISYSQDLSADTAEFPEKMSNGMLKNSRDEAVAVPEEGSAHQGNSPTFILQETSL

[4] = biological target: T1, SMVT; assay type: cell-based, canine; conditions: MDCK-MDR1 cells, excess biotin, Fig. 4
[5] = biological target: T1, SMVT; conditions: read-out: apparent affinity constant (Km) towards SMVT; MDCK-MDR1 cells, [3H] biotin uptake, 0.1–100µM, 30 min, Michaelis-Menten fit
[6] = test system: Caco-2 cells; assay: Cellular accumulation on Caco-2 cell monolayers; conditions: 30 min incubation, Fig. 3
[7] = test system: MDCK-MDR1 cells; assay: Cellular accumulation on MDCK-MDR1 cell monolayers; conditions: 30 min incubation, Fig. 2
[8] = biological target: T1, SMVT; conditions: MDCK-MDR1 monolayers, 0.5µCi/ml, no inhibitor

Compound | IC50 [3] [µM] | uptake of prodrug in the presence of unlabeled biotin [4] | Km [5] [µM] | increase in the uptake compared to ACV [6] [times] | other results
Nc1nc2c(ncn2COCCO)c(=O)[nH]1 [ACV, 2-amino-9-((2-hydroxyethoxy)methyl)-1H-purin-6(9H)-one] | – | – | – | – | cytotoxic effect [1]: Neither ACV nor its targeted lipid prodrugs demonstrate any cytotoxic effect; oral bioavailability ([2]; in vivo, po): 15–30%
CCCCCCC(CCCCCCCCCCC(=O)OCCOCn1cnc2c(=O)[nH]c(N)nc21)OC(=O)CCCC[C@@H]1SC[C@@H]2NC(=O)N[C@@H]21 (stereo partly shown) [B-12HS-ACV, biotin-12hydroxystearicacid-acyclovir] | 8.17 ± 0.09 | significantly lower | 24 ± 3.2 | 8.3 | –
Nc1nc2c(ncn2COCCOC(=O)CCCC[C@@H]2SC[C@@H]3NC(=O)N[C@@H]32)c(=O)[nH]1 [B-ACV, Biotin-ACV] | 14.84 ± 0.1 | significantly lower | 30.9 ± 4.19 | 3.5 | increase in the uptake compared to parent drug, ACV [7]: 6 times
CC(C)[C@H](N)C(=O)OCCOCn1cnc2c(=O)[nH]c(N)nc21 [VACV, Valacyclovir] | – | – | – | – | increase of the oral bioavailability of ACV ([2]; ref Balimane et al., 1998, de Vrueh et al., Guo et al., 1999, Jacobson, 1993, Perry and Faulds, 1996, Soul-Lawton et al., 1995, Talluri et al., 2008): 3 to 5 fold
[^3H] Biotin | – | – | – | – | Permeability of [3H] biotin alone [8]: 4.74 ×10⁻⁶ cm/s
biotin-ricinoleicacid-acyclovir [B-R-ACV] | 8.04 ± 0.07 | significantly lower | 20.2 ± 1.74 | – | –
